Assay results reported in US11964953B2, “Substituted aminothiazoles as DGKzeta inhibitors for immune activation” (Bayer Aktiengesellschaft, priority 2020, dated 2024).

Biological target: human DGKζ (Homo sapiens (Human), UniProt Q13574)
Assay: Human DGKζ kinase activity inhibition assay (ADP-Glo)
Assay type: biochemical
Settings: in vitro human DGKζ kinase activity inhibition assay; read-out: IC50
Experimental: Human DGKζ Kinase Activity Inhibition Assay. Human diacylglycerol kinase zeta (DGKζ) inhibitory activity of compounds of the present invention was quantified employing the human DGKζ kinase activity assay as described in the following paragraphs. In essence, the enzyme activity was measured by quantification of the adenosine-di-phosphate (ADP) generated as a co-product of the enzyme reaction via the “ADP-Glo™ Kinase Assay” kit from the company Promega. This detection system works as follows: In a first step the adenosine-tri-phosphate (ATP) not consumed in the kinase reaction is quantitatively converted to cyclic adenosine-mono-phosphate (cAMP) employing an adenylate cyclase (“ADP-Glo-reagent”), then the adenylate cyclase is stopped and the ADP generated in the kinase reaction is converted to ATP, which subsequently generates in a luciferase-based reaction a glow-luminescence signal (“Kinase Detection Reagent”). C-terminally FLAG-tagged, recombinant full-length human DGKζ (in house expressed in baculovirus infected insect cells, purified using anti-Flag pulldown and size exclusion chromatography) was used as enzyme. As an alternative, commercially available enzyme by Carnabio can be used. […] Subsequently, 22.55 volumes of a 510 mM solution of octyl-β-D-glucopyranoside (Sigma-Aldrich, Cat. #O8001-10G) in 50 mM MOPS buffer (pH 7.4) were added, and the mixture was sonicated in an ultrasonic bath for 20 s. […] Viewlux™ from Perkin-Elmer). The amount of emitted light was taken as a measure for the amount of ADP generated and thereby for the activity of the DGKζ.

Sequence of human DGKζ (Q13574 other isoform, or with tags, fused parts or gaps): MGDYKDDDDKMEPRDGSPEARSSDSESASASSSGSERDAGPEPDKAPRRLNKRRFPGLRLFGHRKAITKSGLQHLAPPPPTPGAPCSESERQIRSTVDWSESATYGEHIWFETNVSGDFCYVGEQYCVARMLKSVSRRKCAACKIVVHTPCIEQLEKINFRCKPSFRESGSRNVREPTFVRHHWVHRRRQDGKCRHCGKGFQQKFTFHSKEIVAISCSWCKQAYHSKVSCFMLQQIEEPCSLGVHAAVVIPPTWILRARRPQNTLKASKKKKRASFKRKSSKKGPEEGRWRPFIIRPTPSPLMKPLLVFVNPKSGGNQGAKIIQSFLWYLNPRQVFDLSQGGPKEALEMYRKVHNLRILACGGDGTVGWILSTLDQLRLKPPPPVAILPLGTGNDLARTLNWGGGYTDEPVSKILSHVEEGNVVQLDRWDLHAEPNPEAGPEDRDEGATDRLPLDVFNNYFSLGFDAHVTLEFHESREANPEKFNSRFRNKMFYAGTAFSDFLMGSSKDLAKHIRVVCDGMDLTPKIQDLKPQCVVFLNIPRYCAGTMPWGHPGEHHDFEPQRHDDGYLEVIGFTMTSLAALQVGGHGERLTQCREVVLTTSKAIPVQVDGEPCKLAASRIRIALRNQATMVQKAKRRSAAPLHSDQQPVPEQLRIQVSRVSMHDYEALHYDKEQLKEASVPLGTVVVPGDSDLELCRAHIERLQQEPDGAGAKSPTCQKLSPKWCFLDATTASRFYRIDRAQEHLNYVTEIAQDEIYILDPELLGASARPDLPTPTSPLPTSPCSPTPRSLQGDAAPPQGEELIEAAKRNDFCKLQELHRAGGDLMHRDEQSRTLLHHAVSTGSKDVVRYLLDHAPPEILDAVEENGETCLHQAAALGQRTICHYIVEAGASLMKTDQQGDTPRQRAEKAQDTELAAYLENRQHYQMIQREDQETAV

In order of rising IC50:
1. CC(C(N)=O)N(c1ccc(F)c(F)c1)c1nc(N)c(C(=O)c2ccc(OCc3ccccc3)cc2)s1 (racemic) [Example 165, rac-2-(N-[4-amino-5-(4-benzyloxybenzoyl)thiazol-2-yl]-3,4-difluoro-anilino)propanamide]  3 nM
2. CC(C(N)=O)N(c1ccc(Cl)c(F)c1)c1nc(N)c(C(=O)c2ccc(OC(F)F)nc2)s1 (racemic) [Example 164, rac-2-(N-[4-amino-5-[6-(difluoromethoxy)pyridine-3-carbonyl]thiazol-2-yl]-4-chloro-3-fluoro-anilino)propanamide]  7 nM
3. CC(C(N)=O)N(c1nc(N)c(C(=O)c2ccc(OC(F)F)cc2)s1)c1ccc(Cl)cc1F (racemic) [Example 46, rac-2-(N-[4-amino-5-[4-(difluoromethoxy)benzoyl]thiazol-2-yl]-4-chloro-2-fluoro-anilino)propanamide]  7.07 nM
4. COc1ccc(C(=O)c2sc(N(c3ccc(F)c(F)c3)C(C)C(N)=O)nc2N)cc1 (racemic) [Example 51, rac-2-(N-[4-amino-5-(4-methoxybenzoyl)thiazol-2-yl]-3,4-difluoro-anilino)propanamide]  16.6 nM
5. CC(C(N)=O)N(c1ccc(F)cc1)c1nc(N)c(C(=O)c2ccc(OC(C)(C)C(=O)NCc3ccc(Cl)cc3)cc2)s1 (racemic) [Example 273, rac-2-[4-[4-amino-2-(N-(2-amino-1-methyl-2-oxo-ethyl)-4-fluoro-anilino)thiazole-5-carbonyl]phenoxy]-N-[(4-chlorophenyl)methyl]-2-methyl-propanamide]  20 nM
6. CC(C(N)=O)N(c1ccc(F)c(F)c1)c1nc(N)c(C(=O)c2ccc(C(F)(F)F)nc2)s1 (single isomer, unassigned) [Example 53.1, 2-(N-[4-amino-5-[6-(trifluoromethyl)pyridine-3-carbonyl]thiazol-2-yl]-3,4-difluoro-anilino)propanamide]  20.3 nM
7. COc1ccc(N(c2nc(N)c(C(=O)c3ccc(OC(F)F)cc3)s2)C(C)C(N)=O)cc1 (single isomer, unassigned) [Example 174.1, 2-(N-[4-amino-5-[4-(difluoromethoxy)benzoyl]thiazol-2-yl]-4-methoxy-anilino)propanamide]  26 nM
8. CC(C(N)=O)N(c1ccc(F)cc1)c1nc(N)c(C(=O)c2ccc(N3CCCCC3)nc2)s1 (racemic) [Example 283, rac-2-(N-[4-amino-5-[6-(1-piperidyl)pyridine-3-carbonyl]thiazol-2-yl]-4-fluoro-anilino)propanamide]  36 nM
9. CC(C(N)=O)N(c1ccc(F)cc1)c1nc(N)c(C(=O)c2ccc(OCC(=O)N(C)Cc3ccco3)cc2)s1 (racemic) [Example 135, rac-2-(N-[4-amino-5-[4-[2-[2-furylmethyl(methyl)amino]-2-oxo-ethoxy]benzoyl]thiazol-2-yl]-4-fluoro-anilino)propanamide]  49.5 nM
10. CC(C(N)=O)N(c1nc(N)c(C(=O)c2ccccc2)s1)c1ccc(Cl)cc1F (racemic) [Example 30, rac-2-(N-(4-amino-5-benzoyl-thiazol-2-yl)-4-chloro-2-fluoro-anilino)propanamide]  57.5 nM
11. CC(C(N)=O)N(c1ccc(OC(F)F)c(Cl)c1)c1nc(N)c(C(=O)c2ccc(Cl)cc2)s1 (racemic) [Example 202, rac-2-[N-[4-amino-5-(4-chlorobenzoyl)thiazol-2-yl]-3-chloro-4-(difluoromethoxy)anilino]propanamide]  69 nM
12. CC1CCN(C(=O)COc2ccc(C(=O)c3sc(N(c4ccc(F)cc4)C(C)C(N)=O)nc3N)cc2)CC1 (racemic) [Example 129, rac-2-(N-[4-amino-5-(4-[2-(4-methyl-1-piperidyl)-2-oxo-ethoxy]benzoyl]thiazol-2-yl]-4-fluoro-anilino)propanamide]  97.1 nM
13. CC1CC(C)CN(c2ccc(C(=O)c3sc(N(c4ccc(F)cc4)C(C)C(N)=O)nc3N)cn2)C1 (racemic) [Example 281, rac-2-(N-[4-amino-5-[6-(3,5-dimethyl-1-piperidyl)pyridine-3-carbonyl]thiazol-2-yl]-4-fluoro-anilino)propanamide]  98 nM
14. CC(C(N)=O)N(c1ccc(OC(F)(F)F)nc1)c1nc(N)c(C(=O)c2ccc(Cl)cc2)s1 (racemic) [Example 249, rac-2-[[4-amino-5-(4-chlorobenzoyl)thiazol-2-yl]-[6-(trifluoromethoxy)-3-pyridyl]amino]propanamide]  120 nM
15. CC(C(N)=O)N(c1ccc(OC(F)(F)F)c(F)c1)c1nc(N)c(C(=O)c2ccncc2)s1 (racemic) [Example 220, rac-2-[N-[4-amino-5-(pyridine-4-carbonyl)thiazol-2-yl]-3-fluoro-4-(trifluoromethoxy)anilino]propanamide]  219 nM
16. CC(C(N)=O)N(c1nc(N)c(C(=O)c2ccccc2)s1)c1ccc(OC(F)(F)F)cc1F (racemic) [Example 239, rac-2-[N-(4-amino-5-benzoyl-thiazol-2-yl)-2-fluoro-4-(trifluoromethoxy)anilino]propanamide]  236 nM
17. CC(C(N)=O)N(c1ccc(F)c(F)c1)c1nc(N)c(C(=O)c2cccnc2)s1 (single isomer, unassigned) [Example 184.1, 2-(N-[4-amino-5-(pyridine-3-carbonyl)thiazol-2-yl]-3,4-difluoro-anilino)propanamide]  297 nM
18. CC(C(N)=O)N(c1ccc(F)c(F)c1)c1nc(N)c(C(=O)c2ccc(OCc3ccccc3)cc2)s1 (single isomer, unassigned) [Example 165.2, 2-(N-[4-amino-5-(4-benzyloxybenzoyl)thiazol-2-yl]-3,4-difluoro-anilino)propanamide]  331 nM
19. CC(C(N)=O)N(c1nc(N)c(C(=O)c2ccccc2)s1)c1ccc(OC(F)F)cc1F (racemic) [Example 241, rac-2-[N-(4-amino-5-benzoyl-thiazol-2-yl)-4-(difluoromethoxy)-2-fluoro-anilino]propanamide]  382 nM
20. CCC(C(N)=O)N(c1ccc(F)cc1)c1nc(N)c(C(=O)c2ccccc2)s1 (racemic) [Example 68, rac-2-[(4-amino-5-benzoyl-1,3-thiazol-2-yl)(4-fluorophenyl)amino]butanamide]  457 nM
21. Cc1cc(C(=O)c2sc(N(c3ccc(F)cc3)C(C)C(N)=O)nc2N)ccn1 (single isomer, unassigned) [Example 187.1, 2-(N-[4-amino-5-(2-methylpyridine-4-carbonyl)thiazol-2-yl]-4-fluoro-anilino)propanamide]  553 nM
22. CC(=O)N1CCN(C(=O)COc2ccc(C(=O)c3sc(N(c4ccc(F)cc4)C(C)C(N)=O)nc3N)cc2)CC1 (racemic) [Example 114, rac-2-(N-[5-[4-[2-(4-acetylpiperazin-1-yl)-2-oxo-ethoxy]benzoyl]-4-amino-thiazol-2-yl]-4-fluoro-anilino)propanamide]  658 nM
23. COCCNC(=O)COc1ccc(C(=O)c2sc(N(c3ccc(F)cc3)C(C)C(N)=O)nc2N)cc1 (racemic) [Example 91, rac-2-(N-(4-amino-5-[4-[2-(2-methoxyethylamino)-2-oxo-ethoxy]benzoyl]thiazol-2-yl]-4-fluoro-anilino)propanamide]  701 nM
24. CC(C(N)=O)N(c1ccc(Cl)c(OC(F)(F)F)c1)c1nc(N)c(C(=O)c2ccccc2)s1 (racemic) [Example 236, rac-2-[N-(4-amino-5-benzoyl-thiazol-2-yl)-4-chloro-3-(trifluoromethoxy)anilino]propanamide]  730 nM
25. CC(C(N)=O)N(c1nc(N)c(C(=O)c2ccccc2)s1)c1c(F)cc(F)cc1F (racemic) [Example 4, rac-2-(N-(4-amino-5-benzoyl-thiazol-2-yl)-2,4,6-trifluoro-anilino)propanamide]  833 nM
26. CC(C)Oc1ccc(N(c2nc(N)c(C(=O)c3ccccc3)s2)C(C)C(N)=O)cc1 (racemic) [Example 3, rac-2-(N-(4-amino-5-benzoyl-thiazol-2-yl)-4-isopropoxy-anilino)propanamide]  927 nM
27. CC(Oc1ccc(C(=O)c2sc(N(c3ccccc3)C(C)C(N)=O)nc2N)cc1)C(N)=O (single isomer, unassigned) [Example 45.3, 2-(N-[4-amino-5-[4-[2-amino-1-methyl-2-oxo-ethoxy]benzoyl]thiazol-2-yl]anilino)propanamide]  1050 nM
28. CC(C(N)=O)N(c1nc(N)c(C(=O)c2ccccc2)s1)c1ccc(OC(F)F)cc1Cl (racemic) [Example 242, rac-2-[N-(4-amino-5-benzoyl-thiazol-2-yl)-2-chloro-4-(difluoromethoxy)anilino]propanamide]  2030 nM
29. COc1ccc(N(c2nc(N)c(C(=O)c3ccc(OC(F)F)cc3)s2)C(C)C(N)=O)cc1 (single isomer, unassigned) [Example 174.2, 2-(N-[4-amino-5-[4-(difluoromethoxy)benzoyl]thiazol-2-yl]-4-methoxy-anilino)propanamide]  3790 nM
30. CC(C(N)=O)N(c1ccc(F)cc1)c1nc(N)c(C(=O)c2ccc(C(F)(F)F)nc2)s1 (single isomer, unassigned) [Example 29.1, 2-(N-[4-amino-5-[6-(trifluoromethyl)pyridine-3-carbonyl]thiazol-2-yl]-4-fluoro-anilino)propanamide]  12500 nM
